In patent publication US20140275509A1, “MULTIFUNCTIONALIZED MATERIALS” (Nanoimmunotech SRL, priority 2011, published 2014):

System: Human tumor cells Hmy-2 (HLA-DR class II positive B cell line)
Assay: Recognition, internalization, labeling and drug release
Type: cell-based
Conditions: drug transported into the cell by cyclodextrin on the BH1/fluorophore/penetrating peptide gold nanoparticles, 1:1:1:1 molar ratio
Description: The antibody described above, BH1 functionalized with the PNA-B sequence, has been conjugated to 13 nm gold nanoparticles previously functionalized with the PNA-A sequence by means of the complementary strand hybridization technique. […] On the other hand and due to the possibility of producing a multifunctionalization by using the presented technology, molecules of a cell-penetrating peptide with the DNA-B sequence could further be bound to the nanostructures by hybridization, as occurred with BH1 to the nanoparticles. Furthermore and continuing with the possibility of producing multifunctionalization by using the presented technology, fluorescent labeling molecules functionalized with the DNA-B sequence could be bound to the previous nanostructures by hybridization, as occurred with the BH1 to the nanoparticles. […] To conclude and continuing with multifunctionalization allowed by the presented technology, molecules of cyclodextrin functionalized with the DNA-B sequence could be bound to the previous nanostructures by hybridization as occurred with BH1, fluorophore and penetrating peptide to the nanoparticles, using a 1:1:1:1 molar ratio, respectively.

For `CC1(C)CCC2=C(O1)c1ccccc1C(=O)C2=O` [β-Lapachone], which cell death is on record?
Its cell death is “selectively induced cell death”.
